According to paper PMC12256496, “An advancement in developmental and reproductive toxicity (DART) risk assessment: evaluation of a bioactivity and exposure-based NAM toolbox” (Frontiers in Toxicology, 2025):
Read-outs that look alike come from different tables or passages of the source. Peptide text beside a SMILES is read from it.

Experiments:
[1] = hepatic intrinsic clearance, CLint (PBK parameter); assay type: in vitro ADME
[2] = human
[3] = cited from earlier work
[4] = Human in vivo PK data: concentration-dose ratio (CDR) and toxicokinetic variability factor (TKVF); design: 95% percentile (Conc-dose-ratio): unit not given here;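 also: Literature-pooled human in vivo PK data, plasma, serum or cord blood concentrations per daily dose, weighted by study population size across non-pregnant, pregnant and fetal groups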
mice = system: mice; design: method as in Supplementary Data Sheet 1; conditions: ref Supplementary Data Sheet 1, cited from earlier work
[5] = system: human developmental and reproductive toxicity; conditions: ref Supplementary Data Sheet 1, cited from earlier work
[6] = system: developmental or reproductive toxicity in animal or human; conditions: cited from earlier work
[7] = cited from earlier work; remark: listed apart in the source
[8] = cited from earlier work; remark: listed apart in the source
[9] = renal clearance, Fup*GFR (PBK parameter); conditions: method Fup*GFR
[10] = system: human induced pluripotent stem cells (hiPSCs); assay: ReproTracker (cardiomyocyte, hepatocyte-like and neuronal differentiation); assay type: cell-based
Text: The ReproTracker assay assesses chemical perturbation of early embryonic development by evaluating key events of cardiomyocyte, hepatocyte-like (HLC) and neuronal cell differentiation using human induced pluripotent stem cells (hiPSCs). The ReproTracker protocol is described in ([Jamalpoor et al., 2022]; [Moreau et al., 2023]) and was followed introducing a few modifications to allow for concentration response analysis. […] Lineage specific differentiation was then investigated by assessment of gene expression patterns of cell-specific biomarkers, induced cytotoxicity (AlamarBlue cell viability assay) and by morphological profiling. Gene biomarkers quantified by multiplex qRT-PCR included BMP4 and MYH6 for cardiomyocytes, FOXA2 and AFP for hepatocyte-like cells, PAX6 and NESTIN for neural rosette lineage. […] Saccharin was used as a negative control substance for all 3 lineages. For dose dependent qRT-PCR analysis quality control filtered Ct values were normalised using an adaptation of the Pfaffl ([Pfaffl, 2001]) method to calculate ΔCt values with respect to biomarker and housekeeping gene amplification efficiencies. […] In addition, Alamar blue read outs were taken from the differentiating cells at day 7 and the end of each differentiation to measure cell viability in a dose dependent way. The AlamarBlue readout was normalised and transformed using a Bayesian hierarchical approach The Bayesian model assumes measurement between rows on the treatment plates are correlated but allows for differences in average sample response between rows. […] The final cell viability PODs were those at time point end (day 14 for cardiomyocytes, day 21 for HCLs and day 13 for neural) and had CDS above or equal to 0.5. Both the gene biomarker PODs and cell viability/cytotoxicity PODs for each tested lineage are considered for BER calculation.

[11] = system: human induced pluripotent stem cell (hiPSC); assay: devTOX quickPredict (ornithine/cystine ratio, cell viability); assay type: cell-based
Description: devTOX quickPredict is a human induced pluripotent stem cell (hiPSC) -based assay that predicts the concentration at which a compound may elicit developmental toxicity. […] Assays were performed as described in [Palmer et al. (2013)] with modifications. Briefly undifferentiated hiPSCs are exposed to the compound for 48 h, with media and test article replacement every 24 h. Ornithine and […] concentrations were measured from the final 24-h treatment using Ultra-Performance Liquid Chromatography-High Resolution Mass Spectrometry (UPLC-HRMS). Cell viability was assessed after sample collection using the CellTiter-Fluor Cell Viability Assay (Promega). Dose-response analysis for the o/c ratio, cell viability, ornithine response and cystine response were performed with GraphPad Prism (version 9.1 or newer, GraphPad Software). Each data set was fit with a nonlinear model. The standard model used for analysis is a four-parameter log-logistic nonlinear model. However, the Akaike information criterion (GraphPad Prism) was used to determine if an asymmetric (five-parameter) or multiphasic nonlinear model was a better fit for the data than the four-parameter model. The developmental toxicity potential (dTP, o/c ratio) and toxicity potential (TP, cell viability) concentrations were predicted from the respective dose-response curves using the hiPSCs cell developmental toxicity threshold (dTT, 0.85).

rabbits = system: rabbits; design: method as in Supplementary Data Sheet 1; conditions: ref Supplementary Data Sheet 1, cited from earlier work
rats = conditions: ref Supplementary Data Sheet 1, cited from earlier work
thyroid peroxidase (TPO) = assay: IPP: thyroid peroxidase (TPO) binding; conditions: low-risk exposure scenario
Text: In vitro pharmacological profiling is used to measure specific and high affinity non-covalent binding interactions between chemicals of interest and various targets with known safety liabilities. These targets include G protein coupled receptors (GPCRs), nuclear hormone receptors (NHRs), ion channels and enzymes. For this evaluation we included 72 targets of interest a full list of which is available in Supplementary Data Sheet 5, across a range of radioligand binding, enzymatic and protein-protein interaction assays run in binding mode only.
The process for deriving a PoD for each of the 72 targets consisted of a two-step method that has been widely adopted when conducting in vitro pharmacological profiling experiments ([Brennan et al., 2024]). […] Targets showing an inhibition or stimulation greater than 50% of a maximal response produced by a reference compound are followed up in a second phase which includes an eight-point concentration response (in two replicates). […] EC50 values (concentration producing a half-maximal response) and IC50 values (concentration causing a half-maximal inhibition of the control agonist response) were determined by the Bayesian probabilistic model of the concentration-response curves and the Hill equation as per ([Labelle et al., 2019]). […] Calculated IC50s were taken forwards as the IPP PoDs ([Middleton et al., 2022]). […]

[12] = evidence of developmental or reproductive toxicity in animal or human, irrespective of exposure/dose, ref Supplementary Data Sheet 1
[13] = Non-Pregnant population, TKVF95 = p95 / weighted mean concentration-dose ratio
[14] = Fetus population, TKVF95 = p95 / weighted mean concentration-dose ratio
[15] = Non-Pregnant, combined (oral, IV)
[16] = Pregnant population, TKVF95 = p95 / weighted mean concentration-dose ratio

## CCOC(=O)c1ccccc1C(=O)OCC [Diethyl phthalate]
[1]
  Intrinsic Liver Clearance: 596.6 L/h
[2]
  Renal Clearance: 1.371 L/h
[3]; ref [19]
  Fup: 19%

## O=C1CN(/N=C/c2ccc([N+](=O)[O-])o2)C(=O)N1 [Nitrofurantoin]
[4]; female, human, in vivo
  CDR fold difference to non-pregnant: 1.29
  CDR fold difference to pregnant: 1.00
  TKVF: 5.73
[4]; human, in vivo
  CDR fold difference to pregnant: 1.74
[4]; human, in vivo, po
  95% percentile (Conc-dose-ratio): 0.11
  Fold Difference to non-pregnant: 1.00
  Mean Conc-dose -ratio: 0.033 uM/(mg/day]
  TKVF: 3.36
mice; based on mg/kg administered to the dam
  multiple of human dose with growth retardation and low incidence of minor and common malformations: 68 times
mice
  multiple of human dose at which fetal malformations were not observed: 25 times
[5]; Pharmaceutical, 200 mg/daily, oral
  Exposure risk (DART risk classification): High Risk
[6]; [12]
  DART Hazard Call: Uncertain

## COC(=O)[C@H](Cc1ccccc1)NC(=O)[C@@H](N)CC(=O)O [Aspartame] (H-Asp-Phe-OMe)
[1]; scaled from [6]
  Intrinsic Liver Clearance: 400.2 L/h
[5]; Dietary, 2,400 mg/daily, oral
  Exposure risk (DART risk classification): Low Risk
[7]; Solubility pH 2.2, ref [4]
  Aqueous Solubility: 20 mg/mL
[3]; ref [6]
  Fup: 83.8%
[8]; ref FSCJ, EFSA, SCF, JMPR as named in the cell
  ADI: ADI set by EFSA (40 mg/kg/day)
[9]
  Renal Clearance: 6.049 L/h

## CN(Cc1cnc2nc(N)nc(N)c2n1)c1ccc(C(=O)N[C@@H](CCC(=O)O)C(=O)O)cc1 [Methotrexate (MTX), Methotrexate]
[4]; [13]
  TKVF: 2.74
[4]; Non-Pregnant, combined (oral, intramuscular, subcutaneous)
  TKVF: 2.74
[4]; female, human, in vivo
  CDR fold difference to non-pregnant: 1.11
  TKVF: 2.65
[4]; female, human, in vivo, sc
  95% percentile (Conc-dose-ratio): 0.15
  Fold Difference to non-pregnant: 1.11
  Mean Conc-dose -ratio: 0.055 uM/(mg/day]
  TKVF: 2.65
[4]; human, in vivo
  CDR fold difference to non-pregnant: 1.00
[10]; additional testing in ReproTracker, data not shown
  concentration leading to effects on iPSC differentiation: above 0.0085 μM
[11]; PoD 0.06 μM, high-risk scenario 10 mg/weekly
  BER from devTOX quickPredict: ~1
[11]; devTOX quickPredict
  concentration at which disruption to iPSC metabolism was detected: 0.06 µM
[5]; Pharmaceutical, 10 mg/weekly, oral
  Exposure risk (DART risk classification): High Risk
[6]; [12]
  DART Hazard Call: Toxic

## CCCC(CCC)C(=O)O [Valproic acid (VPA), Valproic acid]
[4]; Fetus population
  CDR fold difference to non-pregnant: 0.78
  CDR fold difference to pregnant: 1.13
[4]; [14]
  TKVF: 1.52
[4]; Foetus, combined (oral, IV)
  95% percentile (Conc-dose-ratio): 0.52
  Fold Difference to non-pregnant: 0.78
  Fold Difference to pregnant: 1.13
  Mean Conc-dose -ratio: 0.34 uM/(mg/day]
  TKVF: 1.52
[4]; Non-Pregnant population (reference)
  CDR fold difference to non-pregnant: 1.00
[4]; [13]
  TKVF: 1.62
[4]; [15]
  95% percentile (Conc-dose-ratio): 0.71
  Fold Difference to non-pregnant: 1.00
  Mean Conc-dose -ratio: 0.44 uM/(mg/day]
  TKVF: 1.62
[4]; Pregnant population
  CDR fold difference to non-pregnant: 0.69
[4]; Pregnant population (reference)
  CDR fold difference to pregnant: 1.00
[4]; [16]
  TKVF: 1.85
[4]; Pregnant, combined (oral, IV)
  95% percentile (Conc-dose-ratio): 0.56
  Fold Difference to non-pregnant: 0.69
  Fold Difference to pregnant: 1.00
  Mean Conc-dose -ratio: 0.30 uM/(mg/day]
  TKVF: 1.85
[10]; Figure 8B
  BER from ReproTracker: < 1
[11]; Figure 8B
  BER from devTOX quickPredict: < 1
[5]; Pharmaceutical, 600 mg/daily, oral
  Exposure risk (DART risk classification): High Risk
[5]; Pharmaceutical, 3,600 mg/daily, oral
  Exposure risk (DART risk classification): High Risk
[6]; [12]
  DART Hazard Call: Toxic

## CCN(CC)CCNC(=O)c1cc(Cl)c(N)cc1OC [Metoclopramide]
[4]; [14]
  TKVF: 1.97
[4]; Foetus, IV
  TKVF: 1.97
[4]; [13]
  TKVF: 2.85
[4]; Non-Pregnant, combined (oral+IV)
  TKVF: 2.85
[4]; [16]
  TKVF: 2.71
[4]; Pregnant, IV
  TKVF: 2.71
rabbits; oral, pregnant rabbits
  exposure without adverse developmental effects, multiple of maximum recommended human dose: ~12 times
[6]
  DART Hazard Call: Toxic
rats; oral, pregnant rats
  exposure without adverse developmental effects, multiple of maximum recommended human dose: ~6 times

## CN(C)C(=N)N=C(N)N [Metformin]
[4]; female, human, in vivo
  CDR fold difference to non-pregnant: 0.73
  CDR fold difference to pregnant: 1.00
  TKVF: 2.75
[4]; female, human, in vivo, po
  95% percentile (Conc-dose-ratio): 0.0213
  Fold Difference to non-pregnant: 0.73
  Fold Difference to pregnant: 1.00
  Mean Conc-dose -ratio: 0.008 uM/(mg/day]
  TKVF: 2.75
[4]; human, in vivo
  CDR fold difference to pregnant: 0.56
[4]; human, in vivo, po
  Fold Difference to pregnant: 0.56
rabbits; rabbits
  highest dose not teratogenic: 600 mg/kg/day
[5]; Pharmaceutical, 2,000 mg/daily, oral
  Exposure risk (DART risk classification): Low Risk
[6]; [12]
  DART Hazard Call: Non Toxic
rats; rats
  highest dose not teratogenic: 600 mg/kg/day

## CN(CCOc1ccc(CC2SC(=O)NC2=O)cc1)c1ccccn1 (stereo not drawn) [Rosiglitazone]
[4]; female, human, in vivo
  TKVF: 1.71
[4]; female, human, in vivo, po
  TKVF: 1.71
[4]; human, in vivo
  TKVF: 4.34
[4]; human, in vivo, po
  TKVF: 4.34
rabbits; rabbits
  no-effect dose for effects on the placenta, embryo/fetus and offspring: 15 mg/kg/day
rats; rats
  no-effect dose for effects on the placenta, embryo/fetus and offspring: 0.2 mg/kg/day

## CC(=O)CC(c1ccccc1)c1c(O)c2ccccc2oc1=O (stereo not drawn) [Warfarin]
[4]; female, human, in vivo
  TKVF: 1.93
[4]; female, human, in vivo, po
  TKVF: 1.93
[4]; human, in vivo
  TKVF: 1.82
[4]; human, in vivo, po
  TKVF: 1.82
[10]; at higher concentrations, not sensitive enough for a protective PoD
  ReproTracker outcome: flags potential embryotoxicity

## Cc1c(O)cccc1O [2-Methylresorcinol]
Thyroid peroxidase (TPO)
  BER from thyroid peroxidase (TPO) binding: < 1
[5]; Cosmetic, […] in hair colourant, dermal
  Exposure risk (DART risk classification): Low Risk
[6]; [12]
  DART Hazard Call: Non Toxic
[7]; Solubility pH 4.91, ref [7]
  Aqueous Solubility: 263 mg/mL
[8]; existent consumer risk assessment for the cosmetic use scenario, ref SCCS / SCCP / SCCNFP
  MoS: Used safely in cosmetic products. Existent consumer risk assessment from the SCCS. MoS >4000.
[9]
  Renal Clearance: 4.792 L/h
